Measured values as given in PMC11342919 (RSC Advances, 2024).

Key:
M^pro = details: at 100 μM; cited from earlier work
[1] = after 2 h

Structure (SMILES) | inhibition of M^pro (M^pro) | starting material consumed by cysteine [1]
C=C(CC)C(=O)c1ccc(OCC(=O)O)c(Cl)c1Cl [EA, ethacrynic acid] | approximately 20% | 
CCCCCCNC(=O)n1cc(F)c(=O)[nH]c1=O [Carmofur] |  | 75%
